Results as given in patent US8158674B2, “Chalcogenoxanthylium dyes for purging blood pathogens and for photodynamic therapy” (The Research Foundation of State University of New York, priority 2004, dated 2012).
Several values for one entry are separate records, joined by “and”; a condition that tells them apart may be missing. Equal entries are not always repeated. Entries after “also recorded” stand apart in the source; their conditions may differ. Where two headings read alike, the source gives them in different places.

Tests used:
[1] = Quantum yield for generation of singlet oxygen (direct luminescence detection, MeOH); type: physicochemical; conditions: rose bengal as a standard
[2] = Fluorescence quantum yields and radiative lifetimes; type: physicochemical; conditions: for Quantum yield for fluorescence φF ± sd: rhodamine 6G as a standard
[3] = tested on: Pgp-expressing CR1R12 cells; assay: Dye uptake into cell monolayers, CR1R12; type: cell-based, Chinese hamster; conditions: for Effect of verapamil on intracellular dye uptake: dye 1×10−5 M, 7×10−6 M verapamil 2 h before dye
AUXB1 cells [4] = assay: Dye uptake into cell monolayers, AUXB1; type: cell-based, Chinese hamster; conditions: dye 1×10−5 M for 1 h, 7×10−6 M verapamil
Pgp = Pgp (Homo sapiens, UniProt P08183); conditions: cited from earlier work
Sequence of Pgp (P08183 whole entry): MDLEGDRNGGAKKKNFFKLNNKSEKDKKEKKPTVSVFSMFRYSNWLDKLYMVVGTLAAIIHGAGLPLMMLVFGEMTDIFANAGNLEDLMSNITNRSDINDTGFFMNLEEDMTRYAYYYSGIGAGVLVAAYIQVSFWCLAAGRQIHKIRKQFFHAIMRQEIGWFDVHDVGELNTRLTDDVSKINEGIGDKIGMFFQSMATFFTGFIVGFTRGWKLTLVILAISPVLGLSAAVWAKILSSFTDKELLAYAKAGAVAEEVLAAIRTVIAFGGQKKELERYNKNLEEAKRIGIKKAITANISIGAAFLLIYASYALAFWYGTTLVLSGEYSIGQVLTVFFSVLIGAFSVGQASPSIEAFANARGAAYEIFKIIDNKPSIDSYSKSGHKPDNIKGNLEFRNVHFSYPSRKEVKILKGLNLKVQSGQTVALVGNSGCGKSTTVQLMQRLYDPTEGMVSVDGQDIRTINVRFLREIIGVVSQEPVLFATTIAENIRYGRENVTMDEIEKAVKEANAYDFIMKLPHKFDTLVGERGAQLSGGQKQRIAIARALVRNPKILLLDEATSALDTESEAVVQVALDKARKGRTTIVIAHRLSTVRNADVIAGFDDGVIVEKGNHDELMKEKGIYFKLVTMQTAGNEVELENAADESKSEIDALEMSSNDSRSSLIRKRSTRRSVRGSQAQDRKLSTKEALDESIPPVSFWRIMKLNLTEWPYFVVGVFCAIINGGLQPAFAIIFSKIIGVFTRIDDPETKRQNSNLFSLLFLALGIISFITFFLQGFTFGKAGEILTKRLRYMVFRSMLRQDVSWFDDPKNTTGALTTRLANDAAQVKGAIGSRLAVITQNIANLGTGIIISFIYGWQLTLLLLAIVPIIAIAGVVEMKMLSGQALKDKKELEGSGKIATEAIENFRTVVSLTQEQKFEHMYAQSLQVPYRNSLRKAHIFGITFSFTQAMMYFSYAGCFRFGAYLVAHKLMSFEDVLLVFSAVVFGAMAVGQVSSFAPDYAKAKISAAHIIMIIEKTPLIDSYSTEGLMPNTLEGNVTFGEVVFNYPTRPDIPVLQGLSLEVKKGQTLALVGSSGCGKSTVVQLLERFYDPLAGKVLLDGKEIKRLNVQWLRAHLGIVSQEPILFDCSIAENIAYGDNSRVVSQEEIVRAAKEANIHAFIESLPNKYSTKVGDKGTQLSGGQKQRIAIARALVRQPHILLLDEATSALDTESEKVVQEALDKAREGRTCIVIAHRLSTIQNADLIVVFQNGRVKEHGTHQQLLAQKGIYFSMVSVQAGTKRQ

[5] = n-Octanol/water partition coefficient; conditions: pH-6 phosphate buffer as the aqueous phase
[6] = Reduction potential by cyclic voltammetry; conditions: in CH2Cl2, 0.2N Bu4NBF4; vs. ferrocene/ferrocinium couple (E° = +0.40 V)
[7] = Absorption and fluorescence maxima in MeOH; conditions: for Fluorescence maximum λF: excitation at 532 nm; for Bathochromic shift in λmax: compared to TMR-O
CR1R12 cells [8] = assay: Photoradiation of cell cultures (cell viability), CR1R12; conditions: for Phototoxicity (cell viability): 5.0 J cm−2 light
Procedure: (§1) Cell lines were maintained in passage culture on 60-mm diameter polystyrene dishes (Corning Costar, Corning, N.Y.) in 4.0 mL Minimum Essential Medium (α-MEM) supplemented with 10% fetal bovine serum (FBS), 50 units mL^−1 penicillin G, 50 ug ml^−1 streptomycin and 1.0 ug mL^−1 Fungizone® (complete medium). Only cells from passages 1-10 were used for experiments. A stock of cells, passages 1-4, were maintained at −86° C. to initiate the experimental cultures. Cultures were maintained at 37° C. in a 5% CO2 humidified atmosphere (Forma Scientific, Marietta, Ohio). […] Cell counts were performed using a particle counter (Model ZM, Coulter Electronics, Hialeah, Fla.).
(§2) Photoradiation of Cell Cultures: Cell lines, AUXB1 or CR1R12, were seeded on 96-well plates in 200 μL/well α-MEM at 1-4×10^4 cells/well. Rhodamine analogues were then added directly to the cell culture medium at various concentrations and incubated for 2 h in the dark as above. The medium was then removed and 200 μL α-MEM minus FBS and phenol red (clear medium) were added to each well. One plate, with the lid removed, was then exposed to 350-750 nm light delivered at 1.4 mW cm^−2 for 1 h (5.0 J cm^−2) from a filtered halogen source while a parallel plate was kept in the dark during the irradiation period. Immediately following irradiation the clear medium was replaced with complete medium and the monolayers were incubated for an additional 24-h period. Subsequently, cells were trypsinized and counted using the Coulter counter to determine cell viability. Determination of cell viability by cell counting is performed according to an earlier method. […] Briefly, cells that detach from the surface of a culture plate stain with trypan blue, i.e. are nonviable, while all cells that remain attached to the surface exclude trypan blue, 100% viable. We were unable to seed new culture plates with cells that detached from the surface after treatment, while cells that remained attached after treatment continued to grow and multiply. Thus, we count only those cells that remain attached to the culture plate surface after treatment and compare those numbers with the cell numbers obtained from control cells, cells not exposed to either dye or light. Data are then expressed as percent cell viability, treated cell counts/control cell counts.

extracellular VSV = type: cell-based
intracellular VSV = type: cell-based
Pgp in CR1R12 cells = Pgp in CR1R12 cells (Cricetulus griseus, UniProt P21448); assay: Calcein AM uptake, CR1R12; type: cell-based, Chinese hamster; conditions: dye 1×10−5 M for 2 h in the dark
Sequence of Pgp in CR1R12 cells (P21448 whole entry): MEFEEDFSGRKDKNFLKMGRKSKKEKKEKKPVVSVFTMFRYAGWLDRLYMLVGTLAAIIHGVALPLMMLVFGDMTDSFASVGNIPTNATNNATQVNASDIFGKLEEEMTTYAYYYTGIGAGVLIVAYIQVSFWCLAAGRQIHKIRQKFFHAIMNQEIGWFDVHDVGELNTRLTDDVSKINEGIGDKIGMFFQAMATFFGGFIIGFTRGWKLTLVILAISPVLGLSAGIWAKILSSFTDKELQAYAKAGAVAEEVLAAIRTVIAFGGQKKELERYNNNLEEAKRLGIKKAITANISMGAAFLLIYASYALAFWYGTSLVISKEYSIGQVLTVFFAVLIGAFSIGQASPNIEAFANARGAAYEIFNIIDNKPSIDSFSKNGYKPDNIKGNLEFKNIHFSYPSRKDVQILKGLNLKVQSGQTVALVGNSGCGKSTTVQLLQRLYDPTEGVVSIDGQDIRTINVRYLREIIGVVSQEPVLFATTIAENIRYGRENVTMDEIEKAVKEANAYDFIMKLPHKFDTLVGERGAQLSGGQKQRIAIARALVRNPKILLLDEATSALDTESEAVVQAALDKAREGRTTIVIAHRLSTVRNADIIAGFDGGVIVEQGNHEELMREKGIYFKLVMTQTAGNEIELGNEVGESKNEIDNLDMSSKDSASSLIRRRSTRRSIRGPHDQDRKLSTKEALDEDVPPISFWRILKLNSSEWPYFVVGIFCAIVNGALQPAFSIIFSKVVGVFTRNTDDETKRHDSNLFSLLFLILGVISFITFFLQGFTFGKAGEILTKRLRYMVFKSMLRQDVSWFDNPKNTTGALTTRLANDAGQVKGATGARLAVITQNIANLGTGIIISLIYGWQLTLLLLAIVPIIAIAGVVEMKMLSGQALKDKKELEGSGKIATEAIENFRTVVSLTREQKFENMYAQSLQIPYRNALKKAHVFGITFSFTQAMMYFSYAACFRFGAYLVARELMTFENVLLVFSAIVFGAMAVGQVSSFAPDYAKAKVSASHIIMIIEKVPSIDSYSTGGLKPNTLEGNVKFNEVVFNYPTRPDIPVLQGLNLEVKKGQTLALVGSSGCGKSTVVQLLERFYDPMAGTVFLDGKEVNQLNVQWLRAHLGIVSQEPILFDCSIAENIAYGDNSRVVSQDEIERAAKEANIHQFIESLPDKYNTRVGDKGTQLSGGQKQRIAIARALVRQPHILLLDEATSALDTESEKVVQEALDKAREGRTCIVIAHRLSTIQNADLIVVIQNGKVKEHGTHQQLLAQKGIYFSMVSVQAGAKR

AUXB1 cells [9] = assay: Calcein AM uptake, AUXB1; type: cell-based, Chinese hamster; conditions: higher concentrations of dye plus light exposure
[10] = pH 6
CR1R12 cells [11] = tested on: CR1R12 cells
Procedure: as §1, §2

AUXB1 cells [12] = tested on: AUXB1 cells
Procedure: as §1
Photoradiation of Cell Cultures: Cell lines, AUXB1 or CR1R12, were seeded on 96-well plates in 200 μL/well α-MEM at 1-4×10^4 cells/well. Rhodamine analogues were then added directly to the cell culture medium at various concentrations and incubated for 2 h in the dark as above. The medium was then removed and 200 μL α-MEM minus FBS and phenol red (clear medium) were added to each well. […] Subsequently, cells were trypsinized and counted using the Coulter counter to determine cell viability. […] Data are then expressed as percent cell viability, treated cell counts/control cell counts.

[13] = over a wide range of concentrations

| SMILES | Quantum yield for generation of singlet oxygen φ(1O2) ± sd [1] | Radiative lifetime τrad [2] | Quantum yield for fluorescence φF ± sd [2] | Effect of verapamil on intracellular dye uptake [3] | Intracellular dye accumulation in absence vs presence of verapamil (AUXB1 cells [4]) | Inhibition of Pgp function (Pgp) | Pgp transport substrate (Pgp) | Reduction potential E° [6] [V] | Absorption maximum λmax [7] [nm] | log ε at λmax [7] | Fluorescence maximum λF [7] [nm] | Phototoxicity (cell viability) (CR1R12 cells [8]; after 2 h 7×10−6 M verapamil) | Change in intracellular accumulation of CAM (Pgp in CR1R12 cells) | CAM uptake (AUXB1 cells [9]) | n-Octanol/water partition coefficient log P [10] | Cell viability, dye alone in the dark (CR1R12 cells [11]) | Bathochromic shift in λmax [7] [nm] | also measured |
| --- | --- | --- | --- | --- | --- | --- | --- | --- | --- | --- | --- | --- | --- | --- | --- | --- | --- | --- |
| CN(C)c1ccc2c(-c3ccccc3)c3ccc(=[N+](C)C)cc-3oc2c1 [TMR-O, Tetramethylrosamine, reference compound] | 0.08 and 0.08 ± 0.01 | 2.1±0.1 ns | 0.84 and 0.84 ± 0.01 | verapamil enhances the uptake; also recorded: significantly enhanced | similar | do not inhibit Pgp function | transport substrates for Pgp | −0.94 | 552 | 4.92 | 575 | no significant phototoxicity | – | – | – | – | – | n-Octanol/water partition coefficient log P [5]: 1.5; Phototoxicity (cell viability) (CR1R12 cells [8]; without verapamil): no significant phototoxicity; Cell viability, dye alone in the dark (CR1R12 cells [8]; same conditions without light): no significant loss in cell viability |
| CN(C)c1ccc2sc3ccc(N(C)C)cc3c(=O)c2c1 [compound 2] | – | – | – | – | – | – | – | – | – | – | – | – | – | – | – | – | – | Extracellular virucidal activity (extracellular VSV; [13]): < 2.5 log10; Intracellular virucidal activity (intracellular VSV; [13]): < 0.5 log10 |
| COC(=O)c1ccccc1-c1c2ccc(=N)cc-2oc2cc(N)ccc12 [Rh123, rhodamine 123] | – | – | – | – | – | do not inhibit Pgp function | transport substrates for Pgp | – | – | – | – | – | – | – | – | – | – | – |
| CN(C)c1ccc2[s+]c3ccc(N(C)C)cc3c(-c3ccccc3)c2c1.[Cl-] [TMR-S, 2,7-Bis-N,N-dimethylamino-9-phenylthioxanthylium Chloride] | 0.21 and 0.21 ± 0.02 | 1.5±0.1 ns | 0.44 and 0.44 ± 0.01 | significantly enhanced | similar | – | – | −0.79 | 571 | 4.70 | 599 | significant cytotoxicity | no significant change | virtually abolished CAM uptake | 1.2 | no significant loss in cell viability | 20 | Inactivation of extracellular VSV (extracellular VSV; 5 μM, 7.4 J cm−2 light, 20% hematocrit red cells): More than 8 log10; Inactivation of intracellular VSV (intracellular VSV; 50 μM and 7.4 J cm−2): 1.5 log10; Increase in dye uptake in the presence of verapamil ([3]; dye 1×10−5 M for 1 h, 7×10−6 M verapamil): more than 3 fold |
| CN(C)c1ccc2[se+]c3ccc(N(C)C)cc3c(-c3ccccc3)c2c1.[Cl-] [TMR-Se, 2,7-Bis-N,N-dimethylamino-9-phenylselenoxanthylium Chloride] | 0.87 and 0.87 ± 0.01 | approximately 50 ps | 0.009 and 0.009 ± 0.001 | – | – | – | – | −0.77 | 582 | 4.84 | 608 | significant cytotoxicity; also recorded: significant phototoxicity | no significant change | virtually abolished CAM uptake | 1.1 | no significant loss in cell viability | 30 | Inactivation of extracellular VSV (extracellular VSV; 1 μM, 2 J cm−2 light, 20% hematocrit red cells): > 7.4 log10; Inactivation of extracellular VSV (extracellular VSV; 5 μM, 2 J cm−2 light, 45% hematocrit red cells): > 7.4 log10; Inactivation of intracellular VSV (intracellular VSV; under the TMR-Se conditions of b117 (1-5 μM, 2 J cm−2)): 0.5 log10; Cell viability, dye alone in the dark (AUXB1 cells [12]): no significant loss in cell viability; Phototoxicity (cell viability) (AUXB1 cells [12]; AUXB1 cells, light, with or without 7×10−6 M verapamil): equally susceptible to phototoxicity |
